# Experimental data as given in PMC7731314, “Tropinone-Derived Alkaloids as Potent Anticancer Agents: Synthesis, Tyrosinase Inhibition, Mechanism of Action, DFT Calculation, and Molecular Docking Studies” (International Journal of Molecular Sciences, 2020).
# Read-outs that look alike come from different tables or passages of the source.
# Legend:
# A549 cells = type: cell-based, human
# Experimental: The RPMI 8226 or A549 cells were seeded in 6-well plates in medium containing 10% FBS without or with compound 3a (2.5, 5, 10, 20, or 40 µM). After 24-h and 48-h treatment, the cell cycle analysis was performed by determination of the DNA contents on the basis of PI staining as described previously. Briefly, the cells were harvested, washed with PBS, and fixed overnight with 80% ethanol at −20 °C. After that, the cells were washed with PBS and stained with PI using PI/RNase Staining Buffer (BD Biosciences, BD Pharmingen™, USA) for 30 min in darkness at RT. Next, the stained cells were analyzed using FACS Calibur. The intensity of PI fluorescence of individual nuclei was determined and at least 10 000 events were measured within an acquisition rate >60 events/s. The FACS data were analyzed using Cell Quest Pro Version 6.0 (BD Biosciences, San Jose, CA, USA). for the Macintosh operating system. The data were analyzed to determine the percentage of cells at the sub-G1 phase (apoptotic cells) and each phase of the cell cycle (G1, S, and G2/M).
# mushroom tyrosinase = mushroom tyrosinase (Agaricus bisporus, UniProt C7FF04); experiment: Kinetic analysis of the inhibition of tyrosinase (Lineweaver-Burk); type: biochemical; conditions: tyrosinase-catalyzed oxidation of L-DOPA
# Experimental: To understand the mechanism of mushroom tyrosinase inhibition by new compounds 3a–3h, enzyme inhibition kinetic studies were performed. The mechanism of tyrosinase inhibition was determined using Lineweaver–Burk plot, which is a useful graphical method for analysis of the Michaelis–Menten equations used to determine the inhibition constant […].
# A series of experiments were performed to determine the inhibition kinetics of compounds by following the already reported method. The inhibitor concentrations for compounds were 50 and 100 µM. Substrate L-DOPA concentration was between 100 and 250 µM in all kinetic studies. Maximal initial velocity was determined from the initial linear portion of absorbance up to ten minutes after addition of enzyme. The inhibition type of the enzyme, Michaelis constant (KM) and maximal velocity (Vmax) were determined by Lineweaver–Burk plots of inverse of velocities (1/V) versus inverse of substrate concentration 1/[L-DOPA] mM^−1.
# [1] = tested on: human multiple myeloma (RPMI 8226) cell line; experiment: MTT cell proliferation assay, RPMI 8226; type: cell-based; conditions: antiproliferative, 96 h, read-out: IC50 ± SD RPMI 8226
# Experimental: The influence of the tested compounds on the proliferation of RPMI 8226 and A549 cells was estimated with the MTT assay as described previously. Briefly, 1 × 10^4 cells/mL (RPMI 8226) or 0.2 × 10^4 (A549) cells per well were seeded into 96-well plates and cultured (in growth medium containing 10% FBS) with different concentrations of each compound ranging from 3.125 to 100 μM. The control cells were treated with the vehicle DMSO (0.1%).
# RPMI 8226 cells = experiment: Annexin V-FITC/PI cell death by flow cytometry, RPMI 8226; type: cell-based, human; conditions: for IC50: Homo sapiens, read-out: IC50 for apoptosis (concentration inducing apoptosis in 50% of cells)
# Experimental: The quantitative analysis of compound 3a-induced cell death was performed using an Annexin V-fluorescein isothiocyanate (FITC)/propidium iodide (PI) apoptosis kit (BD Biosciences, BD Pharmingen™, San Jose, CA, USA) as previously described. Briefly, the RPMI 8226 or A549 cells growing on the 6-well plates in the culture medium with 2% FBS were subjected to increasing concentrations of compound 3a (2.5, 5, 10, 20, or 40 μM) for 24 and 48 h. After the treatment, the cells were harvested, centrifuged at 1000 rpm and room temperature (RT) for 5 min, washed twice with PBS, and stained with […] of AnnexinV-FITC and […] of PI. After incubation for 15 min in the dark at room temperature, the cells were immediately analyzed using FACS Calibur. The intensity of fluorescence of AnnexinV-FITC and PI stained cells was determined by acquisition of at least 10,000 events per sample within the rate >60 events/s. The FACS data were analyzed using Cell Quest Pro Version 6.0. for the Macintosh operating system. The data were analyzed to determine the percentage of viable, early apoptotic, late apoptotic, and necrotic cells.
# mushroom tyrosinase, sequence (C7FF04 1-392): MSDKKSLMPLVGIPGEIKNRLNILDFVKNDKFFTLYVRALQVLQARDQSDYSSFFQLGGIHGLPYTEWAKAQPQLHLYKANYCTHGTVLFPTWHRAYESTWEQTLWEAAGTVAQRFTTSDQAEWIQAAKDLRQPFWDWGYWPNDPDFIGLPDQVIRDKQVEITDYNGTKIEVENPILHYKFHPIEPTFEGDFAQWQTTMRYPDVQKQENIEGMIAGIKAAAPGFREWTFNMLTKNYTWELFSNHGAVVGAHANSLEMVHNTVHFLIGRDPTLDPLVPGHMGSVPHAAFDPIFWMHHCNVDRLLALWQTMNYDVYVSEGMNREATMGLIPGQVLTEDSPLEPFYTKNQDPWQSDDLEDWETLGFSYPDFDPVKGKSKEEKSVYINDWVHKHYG
smiles,measurement,setting,value
"CN1C2CCC1CC(=NNc1nc(-c3ccc(I)cc3)cs1)C2 [Compound 3a, 4-(4-Iodophenyl)-2-(2-(8-methyl-8-azabicyclo[3.2.1]octan-3-ylidene)hydrazinyl)thiazole]",Cell cycle distribution G0/G1,"A549 cells; A549, 2.5 µM, 24 h",64.49±1.89 % of cells
same,Cell cycle distribution G2/M,"A549 cells; A549, 2.5 µM, 24 h",14.68±2.11 % of cells
same,Cell cycle distribution S,"A549 cells; A549, 2.5 µM, 24 h",12.39±2.34 % of cells
same,Cell cycle distribution sub-G1,"A549 cells; A549, 2.5 µM, 24 h",8.81±3.73 % of cells
same,Cell cycle distribution G0/G1,"A549 cells; A549, 2.5 µM, 48 h",73.22±1.97 % of cells
same,Cell cycle distribution G2/M,"A549 cells; A549, 2.5 µM, 48 h",8.91±2.22 % of cells
same,Cell cycle distribution S,"A549 cells; A549, 2.5 µM, 48 h",6.07±1.54 % of cells
same,Cell cycle distribution sub-G1,"A549 cells; A549, 2.5 µM, 48 h",11.98±3.62 % of cells
same,Cell cycle distribution G0/G1,"A549 cells; A549, 5 µM, 24 h",65.90±2.36 % of cells
same,Cell cycle distribution G2/M,"A549 cells; A549, 5 µM, 24 h",13.62±2.25 % of cells
same,Cell cycle distribution S,"A549 cells; A549, 5 µM, 24 h",12.18±2.45 % of cells
same,Cell cycle distribution sub-G1,"A549 cells; A549, 5 µM, 24 h",8.94±3.39 % of cells
same,Cell cycle distribution G0/G1,"A549 cells; A549, 5 µM, 48 h",68.55±8.03 % of cells
same,Cell cycle distribution G2/M,"A549 cells; A549, 5 µM, 48 h",9.05±1.72 % of cells
same,Cell cycle distribution S,"A549 cells; A549, 5 µM, 48 h",6.81±2.66 % of cells
same,Cell cycle distribution sub-G1,"A549 cells; A549, 5 µM, 48 h",15.74±6.03 % of cells
same,Cell cycle distribution G0/G1,"A549 cells; A549, 10 µM, 24 h",66.51±4.46 % of cells
same,Cell cycle distribution G2/M,"A549 cells; A549, 10 µM, 24 h",11.43±2.88 % of cells
same,Cell cycle distribution S,"A549 cells; A549, 10 µM, 24 h",9.82±2.73 % of cells
same,Cell cycle distribution sub-G1,"A549 cells; A549, 10 µM, 24 h",13.23±7.01 % of cells
same,Cell cycle distribution G0/G1,"A549 cells; A549, 10 µM, 48 h",68.54±6.87 % of cells
same,Cell cycle distribution G2/M,"A549 cells; A549, 10 µM, 48 h",8.44±1.47 % of cells
same,Cell cycle distribution S,"A549 cells; A549, 10 µM, 48 h",7.07±2.63 % of cells
same,Cell cycle distribution sub-G1,"A549 cells; A549, 10 µM, 48 h",16.15±6.33 % of cells
same,Cell cycle distribution G0/G1,"A549 cells; A549, 20 µM, 24 h",66.45±9.20 % of cells
same,Cell cycle distribution G2/M,"A549 cells; A549, 20 µM, 24 h",7.16±2.15 % of cells
same,Cell cycle distribution S,"A549 cells; A549, 20 µM, 24 h",5.23±2.38 % of cells
same,Cell cycle distribution sub-G1,"A549 cells; A549, 20 µM, 24 h",22.36±12.24 % of cells
same,Cell cycle distribution G0/G1,"A549 cells; A549, 20 µM, 48 h",63.07±6.59 % of cells
same,Cell cycle distribution G2/M,"A549 cells; A549, 20 µM, 48 h",5.19±0.93 % of cells
same,Cell cycle distribution S,"A549 cells; A549, 20 µM, 48 h",4.61±1.21 % of cells
same,Cell cycle distribution sub-G1,"A549 cells; A549, 20 µM, 48 h",27.32±6.78 % of cells
same,Cell cycle distribution G0/G1,"A549 cells; A549, 40 µM, 24 h",41.03±2.93 % of cells
same,Cell cycle distribution G2/M,"A549 cells; A549, 40 µM, 24 h",12.87±5.29 % of cells
same,Cell cycle distribution S,"A549 cells; A549, 40 µM, 24 h",11.34±0.58 % of cells
same,Cell cycle distribution sub-G1,"A549 cells; A549, 40 µM, 24 h",35.46±9.33 % of cells
same,Cell cycle distribution G0/G1,"A549 cells; A549, 40 µM, 48 h",16.49±3.46 % of cells
same,Cell cycle distribution G2/M,"A549 cells; A549, 40 µM, 48 h",2.19±0.38 % of cells
same,Cell cycle distribution S,"A549 cells; A549, 40 µM, 48 h",6.05±0.87 % of cells
same,Cell cycle distribution sub-G1,"A549 cells; A549, 40 µM, 48 h",75.27±4.12 % of cells
same,Inhibitory Mechanism,mushroom tyrosinase,mixed
same,IC50,[1],9.32 ± 0.71 µM
same,IC50,"RPMI 8226 cells; RPMI 8226, 24 h",14.6 µM
same,IC50,"RPMI 8226 cells; RPMI 8226, 48 h",7.91 µM
same,Apoptosis (early + late),"RPMI 8226 cells; RPMI 8226, 2.5 µM, 24 hours",19.53 ± 2.64 % of cells ± SD
same,Necrosis,"RPMI 8226 cells; RPMI 8226, 2.5 µM, 24 hours",3.62 ± 0.87 % of cells ± SD
same,Apoptosis (early + late),"RPMI 8226 cells; RPMI 8226, 2.5 µM, 48 hours",20.93 ± 1.83 % of cells ± SD
same,Necrosis,"RPMI 8226 cells; RPMI 8226, 2.5 µM, 48 hours",5.54 ± 0.44 % of cells ± SD
same,Apoptosis (early + late),"RPMI 8226 cells; RPMI 8226, 5 µM, 24 hours",22.23 ± 6.01 % of cells ± SD
same,Necrosis,"RPMI 8226 cells; RPMI 8226, 5 µM, 24 hours",6.35 ± 2.57 % of cells ± SD
same,Apoptosis (early + late),"RPMI 8226 cells; RPMI 8226, 5 µM, 48 hours",31.71 ± 11.36 % of cells ± SD
same,Necrosis,"RPMI 8226 cells; RPMI 8226, 5 µM, 48 hours",7.53 ± 2.61 % of cells ± SD
same,Apoptosis (early + late),"RPMI 8226 cells; RPMI 8226, 10 µM, 24 hours",39.58 ± 9.33 % of cells ± SD
same,Necrosis,"RPMI 8226 cells; RPMI 8226, 10 µM, 24 hours",9.94 ± 2.73 % of cells ± SD
same,Apoptosis (early + late),"RPMI 8226 cells; RPMI 8226, 10 µM, 48 hours",58.25 ± 21.57 % of cells ± SD
same,Necrosis,"RPMI 8226 cells; RPMI 8226, 10 µM, 48 hours",11.08 ± 5.38 % of cells ± SD
same,Apoptosis (early + late),"RPMI 8226 cells; RPMI 8226, 20 µM, 24 hours",60.41 ± 0.99 % of cells ± SD
same,Necrosis,"RPMI 8226 cells; RPMI 8226, 20 µM, 24 hours",18.5 ± 2.38 % of cells ± SD
same,Apoptosis (early + late),"RPMI 8226 cells; RPMI 8226, 20 µM, 48 hours",76.93 ± 14.34 % of cells ± SD
same,Necrosis,"RPMI 8226 cells; RPMI 8226, 20 µM, 48 hours",20.18 ± 11.99 % of cells ± SD
